{"source": "patent US5853695A", "about": "“Method for palliation of pain in human bone cancer using therapeutic tin-117m compositions” (Brookhaven Science Associates LLC, priority 1996, dated 1998)", "key": {"bone [1]": {"test_system": "bone", "test": "Bone uptake estimated from 4-day urine collection and blood specimen (% Total in Bone)", "type": "in vivo, human", "settings": "i.v. infusion", "protocol": "(§1) Fourteen patients were enrolled in a controlled clinical study, including 9 males and 5 females. The patients were administered an Sn-117m chelate complex-containing composition (described above in Example 3) sufficient to provide between 33 and 156 μCi/kg body weight. The protocol was approved by an institutional review board and the United States Food and Drug Administration (FDA). All subjects gave informed consent.\n(§2) Sn-117m (Sn^4+) DTPA was administered through an inlying infusion line over a period of 5-10 minutes. […] A complete urine collection was obtained over 4 days and a blood specimen obtained on the fourth day. This enabled an estimate of bone uptake. Two imaging studies to monitor the Sn-117m distribution were obtained in the first week and repeat chemistries were obtained at one week. Complete blood counts were obtained weekly for at least two months and less frequently thereafter. A repeat Tc-99m MDP bone imaging study was performed at two months."}, "[2]": {"test_system": "white blood cells and platelets", "test": "Hemopoietic toxicity by complete blood counts (white blood cells, platelets)", "type": "in vivo, human", "protocol": "(§3) Prior to initiation of therapy a Tc-99m MDP bone imaging study was obtained. Complete blood counts, including a differential and platelet count, electrolytes, and blood chemistries were obtained. No radiotherapy or chemotherapy had been administered to the patients in the prior month. Hormonal therapy was continued if the patient had been on hormonal therapy for more than three months without improvement in their clinical status.\nas §2\nAs a result, a dosage of the Sn-117m chelate within the range found to be effective for consistent pain reduction can also be expected to be non-toxic to the patient."}, "bone pain": {"test_system": "bone pain", "test": "Palliation of bone pain in human subjects (clinical study, patient pain records)", "type": "in vivo", "parameters": "key to Result (pain relief): -: No relief; +: Partial Relief; ++: Good Relief", "protocol": "as §1, §3, §2\nPatients maintained a record of pain levels and sites daily for two weeks and then twice a week for the next 6 weeks."}, "bone [3]": {"test_system": "bone", "test": "External gamma camera / SPECT imaging of distribution in patients", "type": "in vivo, human", "protocol": "Also note that the dose of the Sn-117m compound is within the range of dosages found to palliate pain according to the method of the invention.\nThe right panel depicts a three-dimensional reprojection image from SPECT (Single Photon Emission Computed Tomography) of a portion of the skeleton in the same patient.\nas §2"}}, "note": "“Also recorded” adds a separate entry of the source.", "data": [{"substance": "Sn-117m (Sn^4+) diethylenetriaminepentaacetic acid [Sn-117m (Sn^4+) DTPA]", "values": [{"measurement": "% Total in Bone", "setting": "bone [1]; Patient 9, breast cancer, 8.41 mCi (0.142 mCi/kg)", "result": 72.1, "unit": "%"}, {"measurement": "% Total in Bone", "setting": "bone [1]; Patient 10, breast cancer, 8.00 mCi (0.135 mCi/kg)", "result": 59.2, "unit": "%"}, {"measurement": "% Total in Bone", "setting": "bone [1]; Patient 11, prostate cancer, 10.46 mCi (0.156 mCi/kg)", "result": 58.0, "unit": "%"}, {"measurement": "% Total in Bone", "setting": "bone [1]; Patient 12, prostate cancer, 14.46 mCi (0.156 mCi/kg)", "result": 34.1, "unit": "%"}, {"measurement": "% Total in Bone", "setting": "bone [1]; Patient 13, prostate cancer, 15.49 mCi (0.131 mCi/kg)", "result": 71.3, "unit": "%"}, {"measurement": "% Total in Bone", "setting": "bone [1]; Patient 14, breast cancer, 7.54 mCi (0.151 mCi/kg)", "result": 69.2, "unit": "%"}, {"measurement": "white blood cell (WBC) count or platelet count", "setting": "[2]; Patient 11, over three months following single administration (10.4 mCi)", "result": "no decrease"}, {"measurement": "hemopoietic toxicity", "setting": "[2]; all patients in the study", "result": "no patients in the study showed evidence of hemopoietic toxicity"}, {"measurement": "Result (pain relief)", "setting": "bone pain; Patient 4, prostate cancer, 61 kg, single 4.70 mCi (0.077 mCi/kg)", "result": "-"}, {"measurement": "Result (pain relief)", "setting": "bone pain; Patient 6, unknown primary cancer, 108 kg, single 8.41 mCi (0.078 mCi/kg)", "result": "+"}, {"measurement": "Result (pain relief)", "setting": "bone pain; Patient 7, prostate cancer, 59 kg, single 4.95 mCi (0.084 mCi/kg)", "result": "++"}, {"measurement": "Result (pain relief)", "setting": "bone pain; Patient 8, lung cancer, 61 kg, single 8.95 mCi (0.146 mCi/kg)", "result": "++"}, {"measurement": "Result (pain relief)", "setting": "bone pain; Patient 9, breast cancer, 59 kg, single 8.41 mCi (0.142 mCi/kg)", "result": "++"}, {"measurement": "Result (pain relief)", "setting": "bone pain; Patient 10, breast cancer, 59 kg, single 8.00 mCi (0.135 mCi/kg)", "result": "++"}, {"measurement": "Result (pain relief)", "setting": "bone pain; Patient 11, prostate cancer, 67 kg, single 10.46 mCi (0.156 mCi/kg)", "result": "+"}, {"measurement": "Result (pain relief)", "setting": "bone pain; Patient 12, prostate cancer, 93 kg, single 14.46 mCi (0.156 mCi/kg)", "result": "++"}, {"measurement": "Result (pain relief)", "setting": "bone pain; Patient 13, prostate cancer, 118 kg, single 15.49 mCi (0.131 mCi/kg)", "result": "++"}, {"measurement": "Result (pain relief)", "setting": "bone pain; Patient 14, breast cancer, 50 kg, single 7.54 mCi (0.151 mCi/kg)", "result": "+"}, {"measurement": "response to treatment, lower dose", "setting": "bone pain; patients given a lower dose", "result": "variable response to the treatment, in one case indicating that no relief was had"}, {"measurement": "relief of pain, higher dose", "setting": "bone pain; seven patients who received more than about 9 mCi/70 kg (~129 μCi/kg), listed as Sn-117m chelates", "result": "all experienced relief of pain; also recorded: five experienced excellent relief; also recorded: two experienced partial relief"}, {"measurement": "relief or palliation of pain, overall", "setting": "bone pain; single administrations, 33 to 156 μCi/kg, fourteen patients", "result": "dose-dependent relief or palliation of pain"}, {"measurement": "distribution in bone, whole body and SPECT images", "setting": "bone [3]; cancer patient with bone metastases, 4 days after 5 mCi, FIG. 2", "result": "patchy bright spots denote spread of cancer to bone"}, {"measurement": "distribution in bone by gamma camera imaging compared with technetium-99m-MDP", "setting": "bone [3]; patient with prostate cancer spread to bone, 4 days after 10 mCi, FIG. 1", "result": "similarity of distribution of the two nuclides"}]}]}
